Laboratory results as given in patent US8003695B2 (Chroma Therapeutics Ltd., priority 2006, dated 2011).
pIC50: −log10 of the molar value.

Legend:
IKBKB (IKKβ) = molecular target: T1, IKBKB (IKKβ) (Homo sapiens, UniProt O14920); test: IKKβ Enzyme Assay (Z'-LYTE, Invitrogen); assay type: biochemical; conditions: ATP at or close to Km; read-out: Inhibitor activity versus IKKβ
T1 construct: purchased Invitrogen (Paisley, UK)
T1 sequence (O14920 1-756): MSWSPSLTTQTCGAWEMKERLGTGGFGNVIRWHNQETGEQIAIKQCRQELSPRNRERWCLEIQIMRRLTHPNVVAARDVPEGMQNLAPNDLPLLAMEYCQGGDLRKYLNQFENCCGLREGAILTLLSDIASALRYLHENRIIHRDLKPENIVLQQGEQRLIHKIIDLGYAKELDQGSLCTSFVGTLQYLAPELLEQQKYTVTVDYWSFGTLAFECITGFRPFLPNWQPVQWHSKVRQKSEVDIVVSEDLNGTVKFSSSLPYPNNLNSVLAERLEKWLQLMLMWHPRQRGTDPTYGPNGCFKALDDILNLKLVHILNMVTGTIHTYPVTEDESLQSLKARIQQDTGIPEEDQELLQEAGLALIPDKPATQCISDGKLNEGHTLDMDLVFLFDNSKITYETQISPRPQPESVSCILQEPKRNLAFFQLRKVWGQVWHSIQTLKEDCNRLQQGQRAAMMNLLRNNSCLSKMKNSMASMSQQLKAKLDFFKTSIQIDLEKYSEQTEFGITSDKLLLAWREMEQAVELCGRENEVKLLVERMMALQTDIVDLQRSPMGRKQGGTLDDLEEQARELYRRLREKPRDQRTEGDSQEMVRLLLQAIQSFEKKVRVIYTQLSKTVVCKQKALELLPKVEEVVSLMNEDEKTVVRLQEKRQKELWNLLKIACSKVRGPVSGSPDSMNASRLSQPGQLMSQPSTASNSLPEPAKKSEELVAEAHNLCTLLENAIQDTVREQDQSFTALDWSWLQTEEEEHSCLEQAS
Outline: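 Z'-LYTE FRET assay with 0.9-8.0 ng human IKBKB, 2 μM Ser/Thr 05 peptide and ATP at or near Km in HEPES pH 7.5, 60 min at room temperature, then 60 min development. Coumarin/fluorescein emission ratio read; duplicate nine-step ⅓-log series from 10 μM; IC50 from sigmoidal fit.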

THP-1 cells = test: LPS-Stimulation of THP-1 Cells, TNF-α release; assay type: cell-based; conditions: Homo sapiens, LPS 1 μg/ml, 6 hrs, read-out: Inhibitor activity versus THP-1 TNFα release
human whole blood = test: LPS-Stimulation of Human Whole Blood, TNF-α release; assay type: cell-based; conditions: LPS 100 ng/ml, 6 hrs, read-out: Inhibitor activity versus human whole blood TNFα release
Experimental: LPS-Stimulation of Human Whole Blood
Whole blood was taken by venous puncture using heparinised vacutainers (Becton Dickinson) and diluted in an equal volume of RPMI1640 tissue culture media (Sigma). 100 μl was plated in V-bottomed 96 well tissue culture treated plates. 2 hrs after the addition of the inhibitor in 100 μl of RPMI1640 media, the blood was stimulated with LPS (E. coli strain 005:B5, Sigma) at a final concentration of 100 ng/ml and incubated at 37° C. in 5% CO2 for 6 hrs. TNF-α levels were measured from cell-free supernatants by sandwich ELISA (R&D Systems #QTA00B)

Structure (SMILES) | pIC50 (IKBKB (IKKβ)) | pIC50 (THP-1 cells) | pIC50 (human whole blood)
CC(C)(C)OC[C@H](NCc1cccc(-c2cc(C(N)=O)c(NC(N)=O)s2)c1)C(=O)OC1CCCC1 [Example 11, Cyclopentyl O-tert-butyl-N-{3-[4-carbamoyl-5-(carbamoylamino)thiophen-2-yl]benzyl}-L-serinate] | > 6.00 | 5.30 to 6.00 | 5.30 to 6.00
CC(C)C[C@H](NCc1ccc(-c2cc(C(N)=O)c(NC(N)=O)s2)cc1)C(=O)OC1CCCC1 [Example 2, Cyclopentyl N-{4-[4-carbamoyl-5-(carbamoylamino)-2-thienyl]benzyl}-L-leucinate] | > 6.00 | < 5.30 | 5.30 to 6.00
NC(=O)Nc1sc(-c2ccc(CN[C@@H](C(=O)OC3CCCC3)c3ccccc3)cc2)cc1C(N)=O [Example 4, Cyclopentyl (2R)-({4-[4-carbamoyl-5-(carbamoylamino)-2-thienyl]benzyl}amino)(phenyl)acetate] | > 6.00 | < 5.30 | 5.30 to 6.00
NC(=O)Nc1sc(-c2cccc(CCN[C@H](C(=O)OC3CCCC3)c3ccccc3)c2)cc1C(N)=O [Example 19, Cyclopentyl (2S)-[(2-{3-[4-carbamoyl-5-(carbamoylamino)-2-thienyl]phenyl}ethyl)amino](phenyl)acetate] | > 6.00 | > 6.00 | > 6.00

Next, values leading:

pIC50 (IKBKB (IKKβ)) | pIC50 (THP-1 cells) | pIC50 (human whole blood) | Structure (SMILES)
> 6.00 | > 6.00 | > 6.00 | CC(C)C[C@H](NC/C=C/c1cccc(-c2cc(C(N)=O)c(NC(N)=O)s2)c1)C(=O)OC1CCCC1 [Example 49, Cyclopentyl N-[(2E)-3-{3-[4-carbamoyl-5-(carbamoylamino)-2-thienyl]phenyl}prop-2-en-1-yl]-L-leucinate]
5.30 to 6.00 | 5.30 to 6.00 | 5.30 to 6.00 | CC(C)C[C@H](NCCc1cc(-c2cc(C(N)=O)c(NC(N)=O)s2)ccc1F)C(=O)OC1CCCC1 [Example 22, Cyclopentyl N-(2-{5-[4-carbamoyl-5-(carbamoylamino)thiophen-2-yl]-2-fluorophenyl}ethyl)-L-leucinate]
> 6.00 | 5.30 to 6.00 | < 5.30 | CC(C)C[C@H](NC/C=C/c1ccc(-c2cc(C(N)=O)c(NC(N)=O)s2)cc1)C(=O)OC(C)(C)C [Example 42, tert-Butyl N-[(2E)-3-{4-[4-carbamoyl-5-(carbamoylamino)-2-thienyl]phenyl}-prop-2-en-1-yl]-L-leucinate]
> 6.00 | 5.30 to 6.00 | 5.30 to 6.00 | NC(=O)Nc1sc(-c2ccc(/C=C/CN[C@H](C(=O)OC3CCCC3)c3ccccc3)cc2)cc1C(N)=O [Example 41, Cyclopentyl (2S)-{[(2E)-3-{4-[4-carbamoyl-5-(carbamoylamino)-2-thienyl]phenyl}prop-2-en-1-yl]amino}(phenyl)acetate]
